# PubChem BioAssay (NCI)
#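 Dose response: 5 concentrations. Exposure: 48 h. Format: 96-well plates. Endpoint: linear interpolation; highest concentration if not reached. The concentration for 50% growth inhibition is given as GI50. TGI marks complete inhibition of growth.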
# Key:
# Test in all cases: growth of human tumour cells (NCI), 48 h
# [1] = test system: LXFL 529 NSCLC
# [2] = test system: CAKI-1 renal
# [3] = test system: K-562 leukemia
# [4] = test system: IGROV1 ovarian
# [5] = test system: NCI-H226 lung
# [6] = test system: MALME-3M melanoma
# [7] = test system: HCT-116 colon
# [8] = test system: TK-10 renal
# [9] = test system: DMS 114 small cell lung
# [10] = test system: SNB-19 CNS
# [11] = test system: EKVX NSCLC
# [12] = test system: SW-620 colon
# [13] = test system: SR leukemia
# [14] = test system: RXF 393 renal
# [15] = test system: A549 NSCLC
# [16] = test system: HL-60(TB) leukemia
# [17] = test system: HCC-2998 colon
# [18] = test system: OVCAR-5 ovarian
# [19] = test system: HCT-15 colon
# [20] = test system: SF-539 CNS
# [21] = test system: NCI-H522 lung
# [22] = test system: SNB-75 CNS
# [23] = test system: 786-0 renal
# [24] = test system: OVCAR-4 ovarian
# [25] = test system: UO-31 renal
# [26] = test system: ACHN renal
# [27] = test system: SK-MEL-5 melanoma
# [28] = test system: MOLT-4 leukemia
# [29] = test system: NCI-H23 lung
# [30] = test system: LOX IMVI melanoma
# [31] = test system: M19-MEL melanoma
# [32] = test system: OVCAR-3 ovarian
# [33] = test system: SN12C renal
# [34] = test system: COLO 205 colon
# [35] = test system: HOP-92 NSCLC
# [36] = test system: RPMI-8226 leukemia
# [37] = test system: SNB-78 CNS
# [38] = test system: U251 CNS
# [39] = test system: KM20L2 colon
# [40] = test system: HOP-62 NSCLC
# [41] = test system: A498 renal
# [42] = test system: SK-MEL-28 melanoma
# [43] = test system: UACC-62 melanoma
# [44] = test system: DLD-1 colon
# [45] = test system: SK-MEL-2 melanoma
# [46] = test system: XF 498 CNS
# [47] = test system: KM12 colon
# [48] = test system: UACC-257 melanoma
# [49] = test system: SF-268 CNS
# [50] = test system: OVCAR-8 ovarian
# [51] = test system: M14 melanoma
# [52] = test system: CCRF-CEM leukemia
# [53] = test system: NCI-H460 lung
# [54] = test system: DMS 273 small cell lung
compound,measurement,setting,value
COc1cc2c(c(OC)c1OC)-c1ccc(SC)c(=O)cc1[C@@H](NCc1ccc(C#N)cc1)CC2,TGI,[1],> 100 µM
same,TGI,[2],> 100 µM
same,TGI,[3],> 100 µM
same,TGI,[4],> 100 µM
same,TGI,[5],0.00977 µM
same,TGI,[6],> 100 µM
same,TGI,[7],0.0215 µM
same,TGI,[8],> 100 µM
same,TGI,[9],0.00534 µM
same,TGI,[10],> 100 µM
same,TGI,[11],> 100 µM
same,TGI,[12],> 100 µM
same,TGI,[13],18.5 µM
same,TGI,[14],0.00508 µM
same,TGI,[15],28.6 µM
same,TGI,[16],0.0089 µM
same,TGI,[17],0.00662 µM
same,GI50,[18],3.15 µM
same,TGI,[18],> 100 µM
same,TGI,[19],0.0463 µM
same,TGI,[20],0.00582 µM
same,TGI,[21],0.0081 µM
same,TGI,[22],> 100 µM
same,TGI,[23],48.9 µM
same,TGI,[24],> 100 µM
same,TGI,[25],> 100 µM
same,TGI,[26],> 100 µM
same,TGI,[27],15.6 µM
same,TGI,[28],> 100 µM
same,TGI,[29],0.00885 µM
same,TGI,[30],55.1 µM
same,TGI,[31],> 100 µM
same,TGI,[32],0.0129 µM
same,TGI,[33],> 100 µM
same,TGI,[34],0.0128 µM
same,TGI,[35],> 100 µM
same,TGI,[36],> 100 µM
same,TGI,[37],> 100 µM
same,TGI,[38],0.00787 µM
same,TGI,[39],0.00388 µM
same,TGI,[40],> 100 µM
N#CC1=C(N)n2c(s/c(=C\c3ccc(Cl)cc3)c2=O)=C(c2nc3ccccc3[nH]2)C1c1ccc(Cl)cc1 (stereo not drawn),TGI,[1],4.58 µM
same,TGI,[2],10.7 µM
same,TGI,[41],4.29 µM
same,TGI,[42],3.03 µM
same,TGI,[3],4.94 µM
same,TGI,[4],9.71 µM
same,TGI,[5],3.46 µM
same,TGI,[6],4.74 µM
same,TGI,[7],3.61 µM
same,TGI,[43],2.92 µM
same,TGI,[8],2.62 µM
same,TGI,[9],4.37 µM
same,TGI,[10],> 100 µM
same,TGI,[11],3.52 µM
same,TGI,[12],3.03 µM
same,TGI,[13],5.85 µM
same,TGI,[15],10.9 µM
same,TGI,[44],15.4 µM
same,TGI,[16],6.45 µM
same,TGI,[17],1.7 µM
same,TGI,[18],3.66 µM
same,TGI,[45],4.21 µM
same,TGI,[19],4.2 µM
same,TGI,[46],3.38 µM
same,TGI,[20],3.56 µM
same,TGI,[21],3.68 µM
same,TGI,[22],17.8 µM
same,TGI,[23],4.96 µM
same,TGI,[47],3.06 µM
same,TGI,[24],5.22 µM
same,TGI,[25],> 100 µM
same,TGI,[26],5.26 µM
same,TGI,[27],11.3 µM
same,TGI,[28],3.86 µM
same,TGI,[29],1.58 µM
same,TGI,[48],7.84 µM
same,TGI,[30],3.23 µM
same,TGI,[49],7.11 µM
same,TGI,[31],9.15 µM
same,TGI,[32],3.66 µM
same,TGI,[33],4.6 µM
same,TGI,[50],3.78 µM
same,TGI,[51],11.5 µM
same,TGI,[52],4.23 µM
same,TGI,[53],8.03 µM
same,TGI,[54],6.23 µM
same,TGI,[34],6.38 µM
same,TGI,[35],0.954 µM
same,TGI,[36],4.65 µM
same,TGI,[38],2.89 µM
same,TGI,[39],6.06 µM
same,TGI,[40],4.68 µM
